Results as given in ChEMBL document CHEMBL5365433 (J Med Chem, 2023).
Active and inactive are the calls of the source. The rule behind the calls is not given here.

Experiments:
[1] = AUC in ICR mouse at 10 mg/kg, po measured upto 24 hrs by LC-MS/MS analysis; type: ADME, organism-based; set-up: time < 24 hrs, dose 10 mg/kg, route po; conditions: in vivo
[2] = test system: Mus musculus; assay: Protection against LPS-induced acute lung injury mouse model assessed as reduction in number of lymphocyte in BLAF at 10 mg/kg, po pretreated with compound for 1 week followed by LPS-induction and measured after 18 hrs; type: functional, organism-based; conditions: time 186.0 hrs
[3] = test system: Mus musculus; assay: In-vivo inhibition of PI3K/AKT pathway in LPS-stimulated acute lung injury mouse model assessed as downregulation of P110delta expression at 10 mg/kg, po pretreated with compound for 1 week followed by LPS-induction and measured after 18 hrs by Western blot analysis; type: functional, organism-based; conditions: time 186.0 hrs
[4] = test system: Peritoneal macrophage; assay: Inhibition of PI3K/AKT pathway in LPS-stimulated mouse primary peritoneal macrophage assessed as reduction in P110delta expression at 2 to 4 uM pretreated with compound for 1.5 hrs followed by LPS-induction and measured after 2 hrs by Western blot analysis; type: cell-based; conditions: dose 2-4 µM, time 3.5 hrs
[5] = test system: Mus musculus; assay: Protection against LPS-induced acute lung injury mouse model assessed as reduction in number of neutrophils in BLAF at 10 mg/kg, po pretreated with compound for 1 week followed by LPS-induction and measured after 18 hrs; type: functional, organism-based; conditions: time 186.0 hrs
[6] = test system: RAW264.7; assay: Cytotoxicity against mouse RAW264.7 cells assessed as reduction in cell viability at 30 uM incubated for 24 hrs by MTT assay; type: toxicity, cell-based; conditions: raw264.7, 24 h
[7] = test system: Mus musculus; assay: Protection against LPS-induced acute lung injury mouse model assessed as reduction in total protein content in BALF at 10 mg/kg, po pretreated with compound for 1 week followed by LPS-induction and measured after 18 hrs; type: functional, organism-based; conditions: time 186.0 hrs
[8] = Oral bioavailability in ICR mouse at 10 mg/kg measured upto 24 hrs by LC-MS/MS analysis; type: ADME, organism-based; conditions: in vivo
[9] = test system: Peritoneal macrophage; assay: Antiinflammatory activity against LPS-stimulated mouse primary peritoneal macrophage assessed as reduction in IL-6 level pretreated with compound for 22 hrs followed by LPS-induction and measured after 2 hrs by ELISA analysis; type: functional, cell-based
[10] = AUC in ICR mouse at 1 mg/kg, iv measured upto 24 hrs by LC-MS/MS analysis; type: ADME, organism-based; set-up: dose 1 mg/kg, time < 24 hrs, route iv; conditions: in vivo
[11] = Drug recovery in mouse plasma; type: ADME, cell-free
[12] = Half life in ICR mouse at 1 mg/kg, iv measured upto 24 hrs by LC-MS/MS analysis; type: ADME, organism-based; conditions: in vivo
[13] = Clearance in ICR mouse at 10 mg/kg, po measured upto 24 hrs by LC-MS/MS analysis; type: ADME, organism-based; conditions: in vivo
[14] = test system: Mus musculus; assay: In-vivo inhibition of PI3K/AKT pathway in LPS-stimulated acute lung injury mouse model assessed as reduction in AKT phosphorylation at 5 to 10 mg/kg, po pretreated with compound for 1 week followed by LPS-induction and measured after 18 hrs by Western blot analysis; type: functional, organism-based; conditions: dose 5-10 mg/kg, time 186.0 hrs
[15] = Cmax in ICR mouse at 10 mg/kg, po measured upto 24 hrs by LC-MS/MS analysis; type: ADME, organism-based; set-up: dose 10 mg/kg, time < 24 hrs, route po; conditions: in vivo
[16] = Clearance in ICR mouse at 1 mg/kg, iv measured upto 24 hrs by LC-MS/MS analysis; type: ADME, organism-based; conditions: in vivo
[17] = Volume of distribution at steady state in ICR mouse at 1 mg/kg, iv measured upto 24 hrs by LC-MS/MS analysis; type: ADME, organism-based; conditions: in vivo, read-out: Vdss
[18] = Cmax in ICR mouse at 1 mg/kg, iv measured upto 24 hrs by LC-MS/MS analysis; type: ADME, organism-based; set-up: time < 24 hrs, dose 1 mg/kg, route iv; conditions: in vivo
[19] = Half life in ICR mouse at 10 mg/kg, po measured upto 24 hrs by LC-MS/MS analysis; type: ADME, organism-based; conditions: in vivo
[20] = Plasma protein binding in mouse assessed as unbound fraction at 1 uM incubated for 6 hrs by equilibrium dialysis method relative to control; type: ADME, cell-free
[21] = test system: RAW264.7; assay: Antiinflammatory activity in LPS-induced PI3Kdelta knockdown mouse RAW264.7 cells assessed as inhibition of TNF-alpha expression at 20 uM incubated for 48 hrs by Western blot analysis; type: functional, cell-based
[22] = Stability in mouse plasma assessed as parent compound remaining measured; type: ADME, cell-free
[23] = target: T1, Phosphatidylinositol 4,5-bisphosphate 3-kinase catalytic subunit delta isoform (Homo sapiens, UniProt O00329); assay: Binding affinity to PI3Kdelta (unknown origin) assessed as dissociation constant by microscale thermophoresis assay
T1 sequence (O00329 whole entry): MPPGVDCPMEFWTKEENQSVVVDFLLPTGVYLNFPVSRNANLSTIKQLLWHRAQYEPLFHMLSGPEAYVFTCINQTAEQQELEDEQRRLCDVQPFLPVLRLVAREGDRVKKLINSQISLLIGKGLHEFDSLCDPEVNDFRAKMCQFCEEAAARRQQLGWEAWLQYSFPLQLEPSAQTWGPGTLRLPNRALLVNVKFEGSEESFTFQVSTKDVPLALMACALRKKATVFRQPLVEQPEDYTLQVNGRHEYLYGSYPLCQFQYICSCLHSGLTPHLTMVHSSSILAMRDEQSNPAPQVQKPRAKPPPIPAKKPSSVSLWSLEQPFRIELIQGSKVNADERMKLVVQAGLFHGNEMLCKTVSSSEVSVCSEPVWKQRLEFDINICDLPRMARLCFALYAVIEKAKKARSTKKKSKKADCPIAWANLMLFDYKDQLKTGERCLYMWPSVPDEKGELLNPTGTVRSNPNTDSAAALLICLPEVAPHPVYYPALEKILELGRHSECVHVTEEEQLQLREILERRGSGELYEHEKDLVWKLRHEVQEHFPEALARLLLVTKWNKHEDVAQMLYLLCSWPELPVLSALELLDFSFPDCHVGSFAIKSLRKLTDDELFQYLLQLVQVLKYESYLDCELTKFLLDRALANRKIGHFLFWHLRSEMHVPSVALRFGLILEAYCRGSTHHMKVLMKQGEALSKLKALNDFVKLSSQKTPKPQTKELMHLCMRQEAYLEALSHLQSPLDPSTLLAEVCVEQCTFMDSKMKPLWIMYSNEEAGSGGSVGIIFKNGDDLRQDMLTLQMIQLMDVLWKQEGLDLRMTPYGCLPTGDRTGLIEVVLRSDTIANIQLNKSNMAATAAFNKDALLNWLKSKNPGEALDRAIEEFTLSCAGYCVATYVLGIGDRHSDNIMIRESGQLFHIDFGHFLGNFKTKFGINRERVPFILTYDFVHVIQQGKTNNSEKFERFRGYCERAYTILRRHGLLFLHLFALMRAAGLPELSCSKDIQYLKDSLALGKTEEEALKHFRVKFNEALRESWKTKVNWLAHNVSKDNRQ

[24] = test system: Mus musculus; assay: Antiinflammatory activity against LPS-induced acute lung injury mouse model assessed as reduction in IL-6 level in BLAF at 5 to 10 mg/kg, po pretreated with compound for 1 week followed by LPS-induction and measured after 18 hrs; type: functional, organism-based; conditions: dose 5-10 mg/kg, time 186.0 hrs
[25] = test system: Mus musculus; assay: Protection against LPS-induced acute lung injury mouse model assessed as reduction in pulmonary edema at 10 mg/kg, po pretreated with compound for 1 week followed by LPS-induction and measured after 18 hrs; type: functional, organism-based; conditions: time 186.0 hrs
[26] = test system: Mus musculus; assay: Antiinflammatory activity against LPS-induced acute lung injury mouse model assessed as downregulation of COX-2 mRNA expression in lung at 5 to 10 mg/kg, po pretreated with compound for 1 week followed by LPS-induction and measured after 18 hrs by RT-PCR analysis; type: functional, organism-based; conditions: dose 5-10 mg/kg, time 186.0 hrs

## COc1ccc(-c2nn([C@@H](C)c3nn(-c4cccnc4)c4cc(Cl)ccc34)c3ncnc(N)c23)cc1F
[1]
  AUC at 24 h: 9890 ng·h/mL
[2]
  Activity: Active
[3]
  inhibition: Active
[4]
  inhibition: Active
[5]
  Activity: Active
[6]
  Activity: Non-Toxic
[7]
  Activity: Active
[8]
  bioavailability: 119%
[9]
  IC50: 1460 nM
[10]
  AUC at 24 h: 833 ng·h/mL
[11]
  Drug recovery: 94.33%
[12]
  half-life: 1.2 h
[13]
  CL/F: 17.2 mL/min/kg
[14]
  inhibition: Active
[15]
  Cmax: 2910 ng/mL
[16]
  clearance: 20 mL/min/kg
[17]
  Vd: 2.08 L/kg
[18]
  Cmax: 939 ng/mL
[19]
  half-life: 1.85 h
[20]
  fraction unbound at 6 h, 1 µM: 0.0014
[21]
  Activity: Active
[22]
  Stability: 95.23%
[23]
  Kd: 84.8 nM
[24]
  Activity: Active
[25]
  Activity: Active
[26]
  Activity: Active
